Reference: ChEMBL document CHEMBL1201862, “PubChem BioAssay data set” (2004)
“And” between values parts separate entries of the source, which are not always exact repeats. Equal values may be shown once.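 In this assay, cells in 96-well plates receive the compound at five concentrations for 48 hours. Endpoints are linearly interpolated between the surrounding concentrations. GI50 is the concentration that inhibits growth by half.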 The source made the active and inactive calls. No stated cut-off is given here; in the data, active = GI50 up to about 1.1 µM and inactive = higher. Where a SMILES comes first, the peptide text is derived from it. [ ]: non-standard residue; d: D form. Phe(4-NO2) = N[CH](Cc1ccc([N+](=O)[O-])cc1)C(=O)O

What was measured:
Test in all cases: growth of human tumour cells (NCI), 48 h
HCC 2998 = test system: HCC 2998
SNB-75 = test system: SNB-75
SNB-19 = test system: SNB-19
OVCAR-5 = test system: OVCAR-5
CCRF-CEM = test system: CCRF-CEM
OVCAR-3 = test system: OVCAR-3
IGROV-1 = test system: IGROV-1
A549 = test system: A549
NCI-H226 = test system: NCI-H226
SF-268 = test system: SF-268
T47D = test system: T47D
ACHN = test system: ACHN
SK-MEL-5 = test system: SK-MEL-5
EKVX = test system: EKVX
HT-29 = test system: HT-29
MOLT-4 = test system: MOLT-4
Hs-578T = test system: Hs-578T
UACC-62 = test system: UACC-62
HOP-92 = test system: HOP-92

Measured: GI50

N#Cc1c(-c2ccccc2)c(/C=N/c2ccc(Cl)cc2)c(=O)n2c1[nH]c1ccccc12
inactive: HCC 2998 > 100 µM | SNB-75 > 100 µM | SNB-19 > 100 µM | OVCAR-5 > 100 µM | CCRF-CEM 21.4 µM | OVCAR-3 80.9 µM | IGROV-1 > 100 µM | A549 83.9 µM | NCI-H226 > 100 µM | SF-268 > 100 µM | T47D > 100 µM | ACHN 65.2 µM | SK-MEL-5 > 100 µM

NNC(=O)c1nnn(CCc2ccccc2)c1C(=O)NN
inactive: EKVX > 100 µM | HCC 2998 > 100 µM | SNB-19 > 100 µM | OVCAR-5 > 100 µM | CCRF-CEM > 100 µM | HT-29 > 100 µM | OVCAR-3 > 100 µM | A549 > 100 µM | ACHN > 100 µM | SK-MEL-5 > 100 µM | MOLT-4 > 100 µM

O=C(CCCN1CCC(Nc2ccc(F)cc2)(c2nnnn2C2CCCCC2)CC1)c1ccc(F)cc1
inactive: Hs-578T 18.5 µM | UACC-62 3.3 µM | EKVX 15.9 µM | HCC 2998 16.3 µM | SNB-75 11.2 µM | SNB-19 15.6 µM | OVCAR-5 15.7 µM | CCRF-CEM 7.1 µM | HT-29 8.57 µM | OVCAR-3 14.8 µM | IGROV-1 3.69 µM | A549 13.1 µM | NCI-H226 17.2 µM | SF-268 12.8 µM | ACHN 10.6 µM | SK-MEL-5 20.7 µM | MOLT-4 5.27 µM

CCCCOC(=O)NC(Nc1ccc(S(=O)(=O)Nc2ccc(OC)nn2)cc1)(C(F)(F)F)C(F)(F)F
inactive: UACC-62 > 100 µM | EKVX > 100 µM | HCC 2998 > 100 µM | HOP-92 78.2 µM | SNB-19 > 100 µM | OVCAR-5 > 100 µM | CCRF-CEM > 100 µM | HT-29 > 100 µM | OVCAR-3 > 100 µM | IGROV-1 > 100 µM | A549 > 100 µM | NCI-H226 > 100 µM | SF-268 > 100 µM | T47D > 100 µM | ACHN > 100 µM | SK-MEL-5 > 100 µM | MOLT-4 > 100 µM

O=C(NC12CC3CC(CC(C3)C1)C2)C(=O)c1c[nH]c2ccc([N+](=O)[O-])cc12
inactive: UACC-62 19.1 µM | EKVX 97.3 µM | HCC 2998 > 100 µM | SNB-75 14.2 µM | HOP-92 30.3 µM | SNB-19 > 20.1 µM | OVCAR-5 > 87.5 µM | CCRF-CEM > 44.9 µM | HT-29 > 44.4 µM | OVCAR-3 24.8 µM | IGROV-1 > 94.2 µM | A549 11.3 µM | NCI-H226 23.8 µM | SF-268 9.48 µM | ACHN 90.4 µM | SK-MEL-5 30.3 µM | MOLT-4 > 100 µM

COc1ccc(C(O)c2ccc3c(c2)OCO3)cc1 (centres undefined)
inactive: UACC-62 > 100 µM | EKVX > 100 µM | HCC 2998 > 100 µM | SNB-75 1.94 µM | HOP-92 > 100 µM | SNB-19 > 100 µM | OVCAR-5 > 100 µM | CCRF-CEM > 100 µM | HT-29 > 100 µM | OVCAR-3 > 100 µM | IGROV-1 > 100 µM | A549 > 100 µM | NCI-H226 > 100 µM | SF-268 > 100 µM | T47D 99.3 µM | ACHN > 100 µM | MOLT-4 > 100 µM

CC(=O)OCc1cc(OC(C)=O)c2cc3c(OC(C)=O)cccc3c(OC(C)=O)c2c1
inactive: UACC-62 13.3 µM | EKVX 6.7 µM | HCC 2998 14.5 µM | SNB-75 22.3 µM | HOP-92 20.4 µM | SNB-19 18.3 µM | OVCAR-5 18.8 µM | CCRF-CEM > 10 µM | HT-29 14.8 µM | OVCAR-3 13.7 µM | IGROV-1 14.5 µM | A549 12.5 µM | NCI-H226 23.1 µM | SF-268 21.2 µM | T47D 21.7 µM | ACHN 11.6 µM | SK-MEL-5 11.2 µM | MOLT-4 15.2 µM

CN(N=O)C(=O)Nc1c[nH]c(=O)[nH]c1=O
inactive: UACC-62 > 100 µM | EKVX > 100 µM | HCC 2998 > 100 µM | SNB-75 > 100 µM | HOP-92 > 100 µM | SNB-19 > 100 µM | OVCAR-5 > 100 µM | CCRF-CEM > 100 µM | HT-29 > 100 µM | OVCAR-3 > 100 µM | IGROV-1 > 100 µM | A549 > 100 µM | NCI-H226 > 100 µM | T47D > 100 µM | ACHN > 100 µM | SK-MEL-5 > 100 µM | MOLT-4 > 100 µM

OC1(c2ccccc2)C2CCN(CC2)C1CN1CCOCC1 (centres undefined)
inactive: UACC-62 > 100 µM | EKVX > 100 µM | HCC 2998 > 100 µM | SNB-75 > 100 µM | SNB-19 > 100 µM | OVCAR-5 > 100 µM | CCRF-CEM > 100 µM | HT-29 > 100 µM | OVCAR-3 > 100 µM | IGROV-1 > 100 µM | A549 > 100 µM | NCI-H226 > 100 µM | SF-268 > 100 µM | T47D > 100 µM | ACHN > 100 µM | SK-MEL-5 > 100 µM | MOLT-4 > 100 µM

O=C1C(NS(=O)(=O)c2ccccc2)=C(n2cnc3ccccc32)C(=O)c2ccccc21
inactive: Hs-578T 48.6 µM | UACC-62 47.3 µM | EKVX > 100 µM | HCC 2998 > 100 µM | SNB-75 30.3 µM | HOP-92 41.4 µM | SNB-19 38.4 µM | OVCAR-5 > 100 µM | CCRF-CEM 85.9 µM | HT-29 > 100 µM | OVCAR-3 > 100 µM | IGROV-1 52.8 µM | A549 > 100 µM | NCI-H226 > 100 µM | SF-268 86.3 µM | ACHN > 100 µM | SK-MEL-5 > 100 µM | MOLT-4 > 100 µM

CCN1CC2=C(NC(=S)NC2c2ccc(Cl)cc2)/C(=C/c2ccc(Cl)cc2)C1 (centres undefined)
inactive: Hs-578T 57.5 µM | UACC-62 29.3 µM | EKVX > 100 µM | HCC 2998 53.8 µM | SNB-75 23.1 µM | SNB-19 68.9 µM | OVCAR-5 > 100 µM | CCRF-CEM 14.5 µM | HT-29 > 100 µM | OVCAR-3 61.5 µM | IGROV-1 42 µM | A549 29.7 µM | NCI-H226 > 100 µM | SF-268 77.4 µM | ACHN 55.7 µM | SK-MEL-5 97.7 µM | MOLT-4 10.5 µM

COc1ccc(C=O)c([N+](=O)[O-])c1
inactive: UACC-62 52.6 µM | EKVX 99.5 µM | HCC 2998 > 10 µM | SNB-75 52.1 µM | HOP-92 81.3 µM | SNB-19 64.6 µM | CCRF-CEM 4.51 µM | HT-29 16.9 µM | OVCAR-3 27.9 µM | IGROV-1 98.6 µM | A549 > 100 µM | NCI-H226 44 µM | SF-268 > 100 µM | ACHN 58.6 µM | SK-MEL-5 17 µM | MOLT-4 4.31 µM

COC1C(OC(C)=O)CC(=O)OC(C)C/C=C/C=C\C(O)C(C)CC(CC=O)C1OC1OC(C)C(OC2CC(C)(O)C(OC(=O)CC(C)C)C(C)O2)C(N(C)C)C1O (centres undefined)
inactive: UACC-62 > 100 µM | HCC 2998 > 100 µM | SNB-75 > 100 µM | HOP-92 > 100 µM | SNB-19 > 100 µM and 77.6 µM | OVCAR-5 > 100 µM | CCRF-CEM 45.3 µM and 33 µM | HT-29 > 100 µM and 67.9 µM | OVCAR-3 > 100 µM and 96.8 µM | IGROV-1 32.4 µM and 25.6 µM | A549 > 100 µM | NCI-H226 > 100 µM | SF-268 56 µM | T47D > 100 µM | ACHN > 100 µM | SK-MEL-5 46.9 µM and 39.3 µM

CC(=O)C1C(=O)C(=O)N(c2ccccc2)C1=O (centres undefined)
inactive: Hs-578T > 100 µM | UACC-62 > 100 µM | EKVX > 100 µM | HCC 2998 > 100 µM | SNB-75 > 100 µM | HOP-92 > 100 µM | SNB-19 > 100 µM | OVCAR-5 > 100 µM | CCRF-CEM > 100 µM | HT-29 > 100 µM | OVCAR-3 > 100 µM | IGROV-1 > 100 µM | A549 > 100 µM | NCI-H226 > 100 µM | SF-268 > 100 µM | ACHN > 100 µM | SK-MEL-5 > 100 µM | MOLT-4 > 100 µM

CCOC(=O)Cc1cc(=O)[nH]c(-n2[nH]c(C)c(CCO)c2=O)n1
inactive: Hs-578T > 100 µM | UACC-62 > 100 µM | EKVX > 100 µM | HCC 2998 > 100 µM | SNB-19 > 100 µM | OVCAR-5 > 100 µM | CCRF-CEM > 100 µM | HT-29 > 100 µM | OVCAR-3 > 100 µM | IGROV-1 > 100 µM | A549 > 100 µM | NCI-H226 > 100 µM | SF-268 > 100 µM | T47D > 100 µM | ACHN > 100 µM | SK-MEL-5 > 100 µM

COC(=O)CCC(NC(=O)C(CCC(=O)OC)NC(=O)C(CCC(=O)OC)NC(=O)C(CCC(=O)OC)NC(=O)C(CCC(=O)OC)NC(=O)C(Cc1ccc([N+](=O)[O-])cc1)NC(=O)C(CCC(=O)OC)NC(=O)C(CCC(=O)OC)NC(=O)C(CCC(=O)OC)NC(=O)C(CCC(=O)OC)NC(=O)C(CCC(=O)OC)NC(C)=O)C(N)=O (centres undefined) (Ac-E(OMe)E(OMe)E(OMe)E(OMe)E(OMe)[Phe(4-NO2)]E(OMe)E(OMe)E(OMe)E(OMe)E(OMe)-NH2; configuration not given here)
inactive: Hs-578T 20 µM | UACC-62 > 10 µM | EKVX > 100 µM | SNB-75 > 100 µM | SNB-19 > 100 µM | OVCAR-5 > 100 µM | CCRF-CEM > 100 µM | HT-29 > 100 µM | IGROV-1 > 100 µM | A549 > 100 µM | SF-268 > 100 µM | ACHN > 100 µM | SK-MEL-5 26.1 µM | MOLT-4 > 100 µM
